Consider 2 compounds from US8734787B2, “Drug delivery system” (Erydel S.p.A., priority 2009, dated 2014).

For data set [1], the system named is erythrocytes. Briefly: Literature: distribution of FK506 in blood and RBC binding capacity. In kind it is in vitro ADME. To be noted: calculated.
The conditions of data set [2]: 10-12 hours post-dose; cited from earlier work.
The subject of data set [3] is erythrocytes. To be noted: cited from earlier work.
Data set [4] concerns human erythrocytes. Briefly: Loading of recombinant FKBP12 into human erythrocytes (cell recovery, corpuscular indices). To be noted: at the three tested concentrations (20, 40 and 80 μM). On the procedure: recombinant FKBP12 was encapsulated into human erythrocytes by means of a procedure of hypotonic dialysis, isotonic resealing and “reannealing” as previously described [Magnani M 1989]. In particular, human red blood cells were obtained from fresh blood collected in heparin from healthy donors and washed with physiologic solution containing Hepes 10 mM (pH 7.4), NaCl 154 mM and Glucose 5 mM to remove leukocytes and platelets. Recovered RBC were re-suspended at 70% haematocrit in physiologic solution, the suspension aliquoted in 3 tubes and rFKBP12 added at increasing concentrations (20, 40, 80 μM/tube). Each erythrocyte suspension was dialysed in dialysis tube with 3.5 kDa cut-off for 90 minutes at 4° C. against 50 volumes of hypotonic solution 60 mOsm containing NaH2PO4 10 mM, NaHCO3 10 mM pH 7.4, glucose 20 mM, GSH 3 mM and ATP 2 mM. At the end of the dialysis step, RBC suspensions were collected and allowed to equilibrate at 37° C. for 5 minutes under gentle stirring. […] RBC corpuscolar indices MCV, Mean Corpuscular Volume, MCH, Mean Corpuscular Haemoglobin and MCHC, Mean Corpuscular Haemoglobin Concentration) were evaluated for both loaded and un-loaded cells at the end of the procedure.

A short description of data set [5]: Preliminary binding studies rFKBP12-FK506 (Dot Blot). As to conditions: 2.5, 5, 10 μg/well protein. As to the method: the ability of 6His-FKBP12 to bind the FK506 ligand was assessed by a slightly modified Dot Blot analysis. Briefly, 6His-FKBP12 in native conditions was dot-blotted onto a 0.2 μm nitrocellulose membrane at increasing concentrations (2.5, 5, 10 μg/well). Successively, the membrane was subjected to a single incubation step with a solution of Tacrolimus-horseradish peroxidase conjugate (PRO-Trac™ II Tacrolimus 5× Conjugate, DiaSorin, Stillwater, Minn., USA) to allow FKBP12-Tacrolimus binding.

Consider `C=CC[C@@H]1/C=C(\C)C[C@H](C)C[C@H](OC)[C@H]2O[C@@](O)(C(=O)C(=O)N3CCCC[C@H]3C(=O)O[C@H](/C(C)=C/[C@@H]3CC[C@@H](O)[C@H](OC)C3)[C@H](C)[C@@H](O)CC1=O)[C@H](C)C[C@@H]2OC` (relative stereo) [FK506, 3S-[3R*[E(1S*,3S*,4S*)],4S*,5R*,8S*,9E,12R*,14R*,15S*,-16R*,18S*, 19S*,26aR*]]-5,6,8,11,12,13,14,15,16,17,18,19,24,25,26,26a-hexadecahydro-5,19-dihydroxy-3-[2-(4-hydroxy-3-methoxycyclohexyl)-1-methylethenyl]-14,16-dimethoxy-4,10,12,18-tetramethyl-8-(2-propenyl)-15,19-epoxy-3H-pyrido[2,1-c][1,4]oxaazacyclotricosine-1,7,20,21(4H,23H)-tetrone mono-hydrate], for which the “FK506 binding capacity for native RBC” value in data set [1] is 0.4 μg/ml RBC 40% Ht. For the same compound, the therapeutic window in data set [2] is 5-20 ng/ml whole blood. In addition, in data set [3], the “binding capacity of RBC” value is reported as “around 440 ng/ml of blood”, the “fraction in blood associated with erythrocytes” value was “about 85%”, the “fraction in blood associated with lymphocytes” value was 0.46% and the “fraction in blood associated with plasma” value is 14%.

As to “recombinant FKBP12: N-terminal His-tagged recombinant form of human 12-kDa FK506 Binding Protein expressed in E. coli BL21(DE3)”, the haemolytic effect entry in data set [4] is reported as “does not appear haemolytic”. The “ability to bind the FK506 ligand” value in data set [5] is “able to bind Tacrolimus in a specific and dose-dependent manner”.
